# Data taken from patent US20260131009A1, “BIFUNCTIONAL PI3K-ALPHA INHIBITORS AND USES THEREOF” (Relay Therapeutics, Inc., priority 2021, published 2026).
# Target: PI3Kα (Homo sapiens, UniProt P42336, H1047R)
# Experiment: ADP-Glo IC50 assay
# Assay type: biochemical
# Settings: class symbols; key not given
# Sequence of PI3Kα (P42336 whole entry H1047R): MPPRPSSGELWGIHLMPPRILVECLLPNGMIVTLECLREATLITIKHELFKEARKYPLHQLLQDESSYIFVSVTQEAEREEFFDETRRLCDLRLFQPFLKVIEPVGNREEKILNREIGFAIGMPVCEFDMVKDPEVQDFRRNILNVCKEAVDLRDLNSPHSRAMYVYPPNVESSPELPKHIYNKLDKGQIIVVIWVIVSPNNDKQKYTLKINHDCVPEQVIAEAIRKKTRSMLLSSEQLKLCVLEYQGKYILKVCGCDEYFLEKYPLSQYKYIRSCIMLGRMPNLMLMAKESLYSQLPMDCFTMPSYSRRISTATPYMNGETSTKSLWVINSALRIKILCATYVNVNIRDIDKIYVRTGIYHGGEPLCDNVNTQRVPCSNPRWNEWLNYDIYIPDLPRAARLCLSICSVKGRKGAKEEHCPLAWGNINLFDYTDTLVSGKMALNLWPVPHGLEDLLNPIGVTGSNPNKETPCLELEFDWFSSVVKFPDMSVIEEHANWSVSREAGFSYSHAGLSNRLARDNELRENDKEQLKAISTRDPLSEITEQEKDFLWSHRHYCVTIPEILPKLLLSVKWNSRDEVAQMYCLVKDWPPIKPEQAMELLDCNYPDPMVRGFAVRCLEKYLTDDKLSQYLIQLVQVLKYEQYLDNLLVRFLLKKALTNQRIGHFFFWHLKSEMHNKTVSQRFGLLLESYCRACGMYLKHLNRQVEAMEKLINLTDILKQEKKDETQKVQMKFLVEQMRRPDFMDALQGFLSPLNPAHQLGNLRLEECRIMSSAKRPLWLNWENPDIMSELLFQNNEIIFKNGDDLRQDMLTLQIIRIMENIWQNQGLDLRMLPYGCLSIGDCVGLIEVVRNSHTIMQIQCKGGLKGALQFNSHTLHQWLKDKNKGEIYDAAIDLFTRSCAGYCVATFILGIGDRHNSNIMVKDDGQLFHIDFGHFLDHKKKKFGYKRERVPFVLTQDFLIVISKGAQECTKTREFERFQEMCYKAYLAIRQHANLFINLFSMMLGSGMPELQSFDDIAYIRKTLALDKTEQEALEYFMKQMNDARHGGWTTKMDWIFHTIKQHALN
# Sequence of PI3Kα (P27986 whole entry partner): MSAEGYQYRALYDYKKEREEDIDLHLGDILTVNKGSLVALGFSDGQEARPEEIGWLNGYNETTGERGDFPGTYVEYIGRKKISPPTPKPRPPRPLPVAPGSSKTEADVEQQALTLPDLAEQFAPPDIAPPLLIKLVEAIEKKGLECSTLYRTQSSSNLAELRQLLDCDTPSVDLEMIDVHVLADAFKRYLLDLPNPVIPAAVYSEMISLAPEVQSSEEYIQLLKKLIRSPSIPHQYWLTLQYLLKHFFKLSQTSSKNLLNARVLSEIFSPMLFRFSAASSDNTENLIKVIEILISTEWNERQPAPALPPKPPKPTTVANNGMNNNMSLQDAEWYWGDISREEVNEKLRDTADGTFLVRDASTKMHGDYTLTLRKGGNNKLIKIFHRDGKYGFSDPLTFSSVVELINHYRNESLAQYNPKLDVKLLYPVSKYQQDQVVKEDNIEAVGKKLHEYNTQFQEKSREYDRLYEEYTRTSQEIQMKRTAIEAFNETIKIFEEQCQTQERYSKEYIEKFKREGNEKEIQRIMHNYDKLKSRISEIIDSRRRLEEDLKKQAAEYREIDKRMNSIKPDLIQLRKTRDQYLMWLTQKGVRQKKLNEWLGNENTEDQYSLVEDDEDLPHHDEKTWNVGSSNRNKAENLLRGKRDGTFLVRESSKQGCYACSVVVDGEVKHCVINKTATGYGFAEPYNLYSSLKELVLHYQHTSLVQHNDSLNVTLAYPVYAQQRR
row,SMILES,IC50 [nM]
1,Cc1ccccc1Nc1ncc(C(=O)NCCOCCOCCOCCOCCC(=O)N[C@H](C(=O)N2C[C@H](O)C[C@H]2C(=O)NCc2ccc(-c3scnc3C)cc2)C(C)(C)C)cc1NC(=O)c1csc2ccccc12 [Example I-14],500 to 1000
2,Cc1ccccc1Nc1ncc(C(=O)NCCOCCOCCOCCC(=O)NCc2ccc3c(c2)CN(C2CCC(=O)NC2=O)C3=O)cc1NC(=O)c1csc2ccccc12 (stereo not drawn) [Example I-26],1000 to 10000
3,COC(=O)CCCCCCCCCNC(=O)c1cnc(Nc2ccccc2C)c(NC(=O)c2csc3ccccc23)c1 [Example I-27],500 to 1000
4,Cc1ccccc1Nc1ncc(C(=O)NCCOCCOCCC(=O)NCc2ccc3c(c2)CN(C2CCC(=O)NC2=O)C3=O)cc1NC(=O)c1csc2ccccc12 (stereo not drawn) [Example I-30],1000 to 10000
5,Cc1ccccc1Nc1ncc(C(=O)NCCOCCOCCOCCOCCOCCOCCC(=O)N[C@H](C(=O)N2C[C@H](O)C[C@H]2C(=O)NCc2ccc(-c3scnc3C)cc2)C(C)(C)C)cc1NC(=O)c1csc2ccccc12 [Example I-32],1000 to 10000
6,Cc1ccccc1Nc1ncc(C(=O)NCCOCCOCCOCCOCCOCCOCCC(=O)N[C@H](C(=O)N2C[C@H](O)C[C@H]2C(=O)N[C@@H](C)c2ccc(-c3scnc3C)cc2)C(C)(C)C)cc1NC(=O)c1csc2ccccc12 [Example I-33],1000 to 10000
7,O=C1CCC(N2Cc3cc(C(=O)NCCCCCCCCCNC(=O)c4cnc(Nc5cc(F)ccc5Cl)c(NC(=O)c5csc6ccccc56)c4)ccc3C2=O)C(=O)N1 (stereo not drawn) [Example I-34],500 to 1000
8,Cc1ccccc1Nc1ncc(C(=O)NCCOCCOCCOCCC(=O)N[C@H](C(=O)N2C[C@H](O)C[C@H]2C(=O)NCc2ccc(-c3scnc3C)cc2)C(C)(C)C)cc1NC(=O)c1csc2ccccc12 [Example I-35],1000 to 10000
9,Cc1ccccc1Nc1ncc(C(=O)NCCOCCOCCC(=O)N[C@H](C(=O)N2C[C@H](O)C[C@H]2C(=O)NCc2ccc(-c3scnc3C)cc2)C(C)(C)C)cc1NC(=O)c1csc2ccccc12 [Example I-37],1000 to 10000
10,Cc1ccccc1Nc1ncc(C(=O)NCCOCCOCCC(=O)N[C@H](C(=O)N2C[C@H](O)C[C@H]2C(=O)N[C@@H](C)c2ccc(-c3scnc3C)cc2)C(C)(C)C)cc1NC(=O)c1csc2ccccc12 [Example I-40],1000 to 10000
11,Cc1ccccc1Nc1ncc(C(=O)NCCCCC(=O)N[C@H](C(=O)N2C[C@H](O)C[C@H]2C(=O)NCc2ccc(-c3scnc3C)cc2)C(C)(C)C)cc1NC(=O)c1csc2ccccc12 [Example I-43],500 to 1000
12,Cc1ccccc1Nc1ncc(C(=O)NCCOCCOCCOCCOCCC(=O)NCc2ccc3c(c2)CN(C2CCC(=O)NC2=O)C3=O)cc1NC(=O)c1csc2ccccc12 (stereo not drawn) [Example I-47],1000 to 10000
13,Cc1ccccc1Nc1ncc(C(=O)NCCCC(=O)N[C@H](C(=O)N2C[C@H](O)C[C@H]2C(=O)NCc2ccc(-c3scnc3C)cc2)C(C)(C)C)cc1NC(=O)c1csc2ccccc12 [Example I-48],500 to 1000
14,Cc1ccccc1Nc1ncc(C(=O)NCCOCCOCCOCCOCCOCCOCCC(=O)NCc2ccc3c(c2)CN(C2CCC(=O)NC2=O)C3=O)cc1NC(=O)c1csc2ccccc12 (stereo not drawn) [Example I-52],10000 to 100000
15,Cc1ccccc1Nc1ncc(C(=O)NCCCC(=O)N[C@H](C(=O)N2C[C@H](O)C[C@H]2C(=O)N[C@@H](C)c2ccc(-c3scnc3C)cc2)C(C)(C)C)cc1NC(=O)c1csc2ccccc12 [Example I-57],500 to 1000
16,Cc1ccccc1Nc1ncc(C(=O)NCCCCCCNc2cccc3c2C(=O)N(C2CCC(=O)NC2=O)C3=O)cc1NC(=O)c1csc2ccccc12 (stereo not drawn) [Example I-59],500 to 1000
17,Cc1ccccc1Nc1ncc(C(=O)NCCCCC(=O)N[C@H](C(=O)N2C[C@H](O)C[C@H]2C(=O)N[C@@H](C)c2ccc(-c3scnc3C)cc2)C(C)(C)C)cc1NC(=O)c1csc2ccccc12 [Example I-65],500 to 1000
18,NC(=O)CCCCCCCCCNC(=O)c1cnc(Nc2cc(F)ccc2Cl)c(NC(=O)c2csc3ccccc23)c1 [Example I-68],100 to 500
19,O=C1CCC(N2C(=O)c3ccc(NCCCCCCCNC(=O)c4cnc(Nc5cc(F)ccc5Cl)c(NC(=O)c5csc6ccccc56)c4)cc3C2=O)C(=O)N1 (stereo not drawn) [Example I-69],100 to 500
20,O=C1CCC(N2Cc3cc(C(=O)NCCCCCCCCCNC(=O)c4cc(NC(=O)c5cc(F)cc(C(F)(F)F)c5)c5c(c4)C(=O)N[C@@H]5c4cc(F)ccc4Cl)ccc3C2=O)C(=O)N1 (stereo partly drawn) [Example I-70],1000 to 10000
21,Cc1ncsc1-c1ccc(CNC(=O)[C@@H]2C[C@@H](O)CN2C(=O)[C@@H](NC(=O)CCCCCCCCCNC(=O)c2cc(NC(=O)c3cc(F)cc(C(F)(F)F)c3)c3c(c2)C(=O)N[C@H]3c2cc(F)ccc2Cl)C(C)(C)C)cc1 [Example I-71],500 to 1000
22,Cc1ccccc1Nc1ncc(C(=O)NCCCC[C@H](N)C(=O)N[C@H](C(=O)N2C[C@H](O)C[C@H]2C(=O)NCc2ccc(-c3scnc3C)cc2)C(C)(C)C)cc1NC(=O)c1csc2ccccc12 [Example I-74],1000 to 10000
23,O=C1CCC(N2C(=O)c3ccc(NCCCCCNC(=O)c4cc(NC(=O)c5cc(F)cc(C(F)(F)F)c5)c5c(c4)C(=O)N[C@@H]5c4cc(F)ccc4Cl)cc3C2=O)C(=O)N1 (stereo partly drawn) [Example I-75],500 to 1000
24,NC(=O)CCCCCCCCCNC(=O)c1cc(NC(=O)c2cc(F)cc(C(F)(F)F)c2)c2c(c1)C(=O)N[C@H]2c1cc(F)ccc1Cl [Example I-79],1000 to 10000
25,O=C1CCC(N2Cc3cc(C(=O)NCCCCCCCNC(=O)c4cc(NC(=O)c5cc(F)cc(C(F)(F)F)c5)c5c(c4)C(=O)N[C@@H]5c4cc(F)ccc4Cl)ccc3C2=O)C(=O)N1 (stereo partly drawn) [Example I-80],100 to 500

# Second part, the compound after the results:
row,IC50 [nM],SMILES
1,100 to 500,Cc1ccccc1Nc1ncc(C(=O)NCCCCCCC(=O)N[C@H](C(=O)N2C[C@H](O)C[C@H]2C(=O)NCc2ccc(-c3scnc3C)cc2)C(C)(C)C)cc1NC(=O)c1csc2ccccc12 [Example I-15]
2,100 to 500,Cc1ccccc1Nc1ncc(C(=O)NCCCCCCCCNc2ccc3c(c2)C(=O)N(C2CCC(=O)NC2=O)C3=O)cc1NC(=O)c1csc2ccccc12 (stereo not drawn) [Example I-16]
3,100 to 500,Cc1ccccc1Nc1ncc(C(=O)NCCCCCCCC(=O)N[C@H](C(=O)N2C[C@H](O)C[C@H]2C(=O)NCc2ccc(-c3scnc3C)cc2)C(C)(C)C)cc1NC(=O)c1csc2ccccc12 [Example I-18]
4,100 to 500,Cc1ccccc1Nc1ncc(C(=O)NCCCCCCC(=O)NCc2ccc3c(c2)CN(C2CCC(=O)NC2=O)C3=O)cc1NC(=O)c1csc2ccccc12 (stereo not drawn) [Example I-19]
5,100 to 500,Cc1ccccc1Nc1ncc(C(=O)NCCCCCCCCNC(=O)c2ccc3c(c2)CN(C2CCC(=O)NC2=O)C3=O)cc1NC(=O)c1csc2ccccc12 (stereo not drawn) [Example I-21]
6,100 to 500,Cc1ccccc1Nc1ncc(C(=O)NCCCCCCC(=O)N[C@H](C(=O)N2C[C@H](O)C[C@H]2C(=O)N[C@@H](C)c2ccc(-c3scnc3C)cc2)C(C)(C)C)cc1NC(=O)c1csc2ccccc12 [Example I-23]
7,100 to 500,Cc1ccccc1Nc1ncc(C(=O)NCCCCCC(=O)N[C@H](C(=O)N2C[C@H](O)C[C@H]2C(=O)NCc2ccc(-c3scnc3C)cc2)C(C)(C)C)cc1NC(=O)c1csc2ccccc12 [Example I-38]
8,100 to 500,O=C(CCCCCCCNC(=O)c1cnc(Nc2cc(F)ccc2Cl)c(NC(=O)c2csc3ccccc23)c1)NCc1ccc2c(c1)CN(C1CCC(=O)NC1=O)C2=O (stereo not drawn) [Example I-41]
9,100 to 500,Cc1ccccc1Nc1ncc(C(=O)NCCCCCCCNc2cccc3c2C(=O)N(C2CCC(=O)NC2=O)C3=O)cc1NC(=O)c1csc2ccccc12 (stereo not drawn) [Example I-42]
10,100 to 500,Cc1ccccc1Nc1ncc(C(=O)NCCCC#Cc2ccc3c(c2)CN(C2CCC(=O)NC2=O)C3=O)cc1NC(=O)c1csc2ccccc12 (stereo not drawn) [Example I-44]
11,100 to 500,Cc1ncsc1-c1ccc(CNC(=O)[C@@H]2C[C@@H](O)CN2C(=O)[C@@H](NC(=O)CCCCCCCCCNC(=O)c2cnc(Nc3cc(F)ccc3Cl)c(NC(=O)c3csc4ccccc34)c2)C(C)(C)C)cc1 [Example I-45]
12,100 to 500,Cc1ccccc1Nc1ncc(C(=O)NCCCCNc2cccc3c2C(=O)N(C2CCC(=O)NC2=O)C3=O)cc1NC(=O)c1csc2ccccc12 (stereo not drawn) [Example I-49]
13,100 to 500,Cc1ccccc1Nc1ncc(C(=O)NCCCNc2cccc3c2C(=O)N(C2CCC(=O)NC2=O)C3=O)cc1NC(=O)c1csc2ccccc12 (stereo not drawn) [Example I-51]
14,100 to 500,Cc1ccccc1Nc1ncc(C(=O)Nc2ccc(N3CCN(c4ccc5c(c4)C(=O)N(C4CCC(=O)NC4=O)C5=O)CC3)cc2)cc1NC(=O)c1csc2ccccc12 (stereo not drawn) [Example I-55]
15,< 100,Cc1ccccc1Nc1ncc(C(=O)NCCCNc2ccc3c(c2)C(=O)N(C2CCC(=O)NC2=O)C3=O)cc1NC(=O)c1csc2ccccc12 (stereo not drawn) [Example I-56]
16,100 to 500,Cc1ccccc1Nc1ncc(C(=O)NCCCCCC(=O)NCc2ccc3c(c2)C(=O)N(C2CCC(=O)NC2=O)C3)cc1NC(=O)c1csc2ccccc12 (stereo not drawn) [Example I-58]
17,100 to 500,Cc1ccccc1Nc1ncc(C(=O)NCCCNC(=O)c2ccc3c(c2)CN(C2CCC(=O)NC2=O)C3=O)cc1NC(=O)c1csc2ccccc12 (stereo not drawn) [Example I-61]
18,100 to 500,O=C1CCC(N2C(=O)c3ccc(NCCCCCNC(=O)c4cnc(Nc5cc(F)ccc5Cl)c(NC(=O)c5csc6ccccc56)c4)cc3C2=O)C(=O)N1 (stereo not drawn) [Example I-63]
19,100 to 500,Cc1ccccc1Nc1ncc(C(=O)NCCc2ccc(Nc3ccc4c(c3)C(=O)N(C3CCC(=O)NC3=O)C4=O)cc2)cc1NC(=O)c1csc2ccccc12 (stereo not drawn) [Example I-64]
20,100 to 500,O=C1CCC(N2Cc3cc(C(=O)NCCCCCCCNC(=O)c4cnc(Nc5cc(F)ccc5Cl)c(NC(=O)c5csc6ccccc56)c4)ccc3C2=O)C(=O)N1 (stereo not drawn) [Example I-66]
21,< 100,Cc1ncsc1-c1ccc(CNC(=O)[C@@H]2C[C@@H](O)CN2C(=O)[C@@H](NC(=O)CCCCCCCCCNC(=O)c2cc(NC(=O)c3cc(F)cc(C(F)(F)F)c3)c3c(c2)C(=O)N[C@@H]3c2cc(F)ccc2Cl)C(C)(C)C)cc1 [Example I-73]
22,< 100,O=C(O)CCCCCCCCCNC(=O)c1cc(NC(=O)c2cc(F)cc(C(F)(F)F)c2)c2c(c1)C(=O)N[C@@H]2c1cc(F)ccc1Cl [Example I-76]
23,< 100,O=C1CCC(N2Cc3cc(C(=O)NCCCCCCCNC(=O)c4cc(NC(=O)c5cc(F)cc(C(F)(F)F)c5)c5c(c4)C(=O)N[C@H]5c4cc(F)ccc4Cl)ccc3C2=O)C(=O)N1 (stereo partly drawn) [Example I-77]
